Experimental data reported in US7375083B2, “Pharmaceutical compositions for prevention of overdose or abuse” (Shire LLC, priority 2003, dated 2008).

What was measured:
[1] = Intravenous bioavailability in rats, plasma d-amphetamine by ELISA; conditions: relative to amphetamine
[2] = Oral pharmacokinetics in rats, plasma d-amphetamine by ELISA; conditions: for Percent AUC / Percent Cmax: Oral, relative to amphetamine (first value where two are given)
Male Sprague-Dawley rats [3] = test: Horizontal locomotor activity after oral administration; format: in vivo; conditions: oral gavage, 6 mg/kg amphetamine equivalent
Male Sprague-Dawley rats [4] = test: Locomotor activity after intranasal administration with and without CMC; format: in vivo
Male Sprague-Dawley rats [5] = test: Locomotor activity after intravenous administration; format: in vivo
Anesthetized Dog = test: Cardiovascular effects after intravenous bolus injection in anesthetized dogs
[6] = 1.0 mg/kg amphetamine equivalent, 1 h
[7] = 1.0 mg/kg, activity above baseline relative to d-amphetamine
[8] = 1.0 mg/kg amphetamine equivalent, 3 h

## CC(Cc1ccccc1)NC(=O)C(N)Cc1ccccc1 (centres unmarked) [F-Amp]
[1]
  Percent AUC: 87%
  Percent Cmax: 89%

## CC(Cc1ccccc1)NC(=O)C(O)C(O)C(O)C(O)CO (centres unmarked) [Gulonate-Amp]
[2]
  Percent AUC: 1%
  Percent Cmax: 1%
[1]
  Percent AUC: 3%
  Percent Cmax: 5%

## C[C@@H](Cc1ccccc1)NC(=O)[C@@H](N)CCCCN [K-Amp]
[2]
  Percent AUC: 98%
  Percent Cmax: 55%
[1]
  Percent AUC: 3%
  Percent Cmax: 3%

## C[C@H](N)Cc1ccccc1 [d-amphetamine, reference compound]
Male Sprague-Dawley rats [3]; 5 Hours
  Peak of activity (Counts per 0.2 h): 291 Counts per 0.2 h
  Time of Last Count Above 200 per 0.2 h: 2.6 h
  Total Activity Counts: 515 Counts
  Total Activity Counts Above Baseline: 0 Counts
Male Sprague-Dawley rats [3]; 12 Hours
  Peak of activity (Counts per 0.2 h): 223 Counts per 0.2 h
  Time of Last Count Above 100 per 0.2 h: 6.4 h
  Total Activity Counts: 6622 Counts
  Total Activity Counts Above Baseline: 5686 Counts
Male Sprague-Dawley rats [4]; [6]
  Total Activity Counts (1 h): 858 Counts
  Total Activity Counts Above Baseline: 686 Counts
Male Sprague-Dawley rats [4]; [7]
  Percent d-amphetamine: 100%
Male Sprague-Dawley rats [5]; [8]
  Total Activity Counts 3 h: 1659 Counts
  Total Activity Counts Above Baseline: 1355 Counts
Male Sprague-Dawley rats [5]; [7]
  Percent d-amphetamine: 100%
[2]; rat, oral, 60 mg/kg
  Animals that died or were sacrificed due to acute symptoms of toxicity: 8 of 12
Anesthetized Dog; 0.202 mg/kg, TIME 0
  DAP % Change from respective Time 0: 0%
  LVP % Change from respective Time 0: 0%
  MAP % Change from respective Time 0: 0%
  MAP - mean arterial pressure: 84 mmHg
  SAP % Change from respective Time 0: 0%
  SAP - systolic arterial pressure: 111 mmHg
Anesthetized Dog; 0.202 mg/kg, TIME 5
  DAP % Change from respective Time 0: 117%
  LVP % Change from respective Time 0: 107%
  MAP % Change from respective Time 0: 109%
  MAP - mean arterial pressure: 176 mmHg
  SAP % Change from respective Time 0: 97%
  SAP - systolic arterial pressure: 218 mmHg
Anesthetized Dog; 0.202 mg/kg, TIME 15
  DAP % Change from respective Time 0: 45%
  LVP % Change from respective Time 0: 52%
  MAP % Change from respective Time 0: 49%
  MAP - mean arterial pressure: 125 mmHg
  SAP % Change from respective Time 0: 52%
  SAP - systolic arterial pressure: 168 mmHg
Anesthetized Dog; 0.202 mg/kg, TIME 25
  DAP % Change from respective Time 0: 30%
  LVP % Change from respective Time 0: 37%
  MAP % Change from respective Time 0: 31%
  MAP - mean arterial pressure: 110 mmHg
  SAP % Change from respective Time 0: 34%
  SAP - systolic arterial pressure: 148 mmHg
Anesthetized Dog; 0.202 mg/kg, TIME 30
  DAP % Change from respective Time 0: 20%
  LVP % Change from respective Time 0: 30%
  MAP % Change from respective Time 0: 23%
  MAP - mean arterial pressure: 103 mmHg
  SAP % Change from respective Time 0: 26%
  SAP - systolic arterial pressure: 140 mmHg
Anesthetized Dog; 0.404 mg/kg, TIME 0
  DAP % Change from respective Time 0: 0%
  LVP % Change from respective Time 0: 0%
  MAP % Change from respective Time 0: 0%
  MAP - mean arterial pressure: 101 mmHg
  SAP % Change from respective Time 0: 0%
  SAP - systolic arterial pressure: 139 mmHg
Anesthetized Dog; 0.404 mg/kg, TIME 5
  DAP % Change from respective Time 0: 88%
  LVP % Change from respective Time 0: 79%
  MAP % Change from respective Time 0: 85%
  MAP - mean arterial pressure: 187 mmHg
  SAP % Change from respective Time 0: 73%
  SAP - systolic arterial pressure: 240 mmHg
Anesthetized Dog; 0.404 mg/kg, TIME 15
  DAP % Change from respective Time 0: 44%
  LVP % Change from respective Time 0: 43%
  MAP % Change from respective Time 0: 43%
  MAP - mean arterial pressure: 145 mmHg
  SAP % Change from respective Time 0: 39%
  SAP - systolic arterial pressure: 193 mmHg
Anesthetized Dog; 0.404 mg/kg, TIME 25
  DAP % Change from respective Time 0: 17%
  LVP % Change from respective Time 0: 26%
  MAP % Change from respective Time 0: 20%
  MAP - mean arterial pressure: 122 mmHg
  SAP % Change from respective Time 0: 19%
  SAP - systolic arterial pressure: 166 mmHg
Anesthetized Dog; 0.404 mg/kg, TIME 30
  DAP % Change from respective Time 0: 11%
  LVP % Change from respective Time 0: 22%
  MAP % Change from respective Time 0: 16%
  MAP - mean arterial pressure: 117 mmHg
  SAP % Change from respective Time 0: 16%
  SAP - systolic arterial pressure: 160 mmHg
Anesthetized Dog; 2.02 mg/kg, TIME 0
  DAP % Change from respective Time 0: 0%
  LVP % Change from respective Time 0: 0%
  MAP % Change from respective Time 0: 0%
  MAP - mean arterial pressure: 115 mmHg
  SAP % Change from respective Time 0: 0%
  SAP - systolic arterial pressure: 158 mmHg
Anesthetized Dog; 2.02 mg/kg, TIME 5
  DAP % Change from respective Time 0: 48%
  LVP % Change from respective Time 0: 40%
  MAP % Change from respective Time 0: 47%
  MAP - mean arterial pressure: 169 mmHg
  SAP % Change from respective Time 0: 44%
  SAP - systolic arterial pressure: 228 mmHg
Anesthetized Dog; 2.02 mg/kg, TIME 15
  DAP % Change from respective Time 0: 23%
  LVP % Change from respective Time 0: 24%
  MAP % Change from respective Time 0: 23%
  MAP - mean arterial pressure: 142 mmHg
  SAP % Change from respective Time 0: 24%
  SAP - systolic arterial pressure: 196 mmHg
Anesthetized Dog; 2.02 mg/kg, TIME 25
  DAP % Change from respective Time 0: 17%
  LVP % Change from respective Time 0: 19%
  MAP % Change from respective Time 0: 17%
  MAP - mean arterial pressure: 135 mmHg
  SAP % Change from respective Time 0: 20%
  SAP - systolic arterial pressure: 189 mmHg
Anesthetized Dog; 2.02 mg/kg, TIME 30
  DAP % Change from respective Time 0: 13%
  LVP % Change from respective Time 0: 16%
  MAP % Change from respective Time 0: 12%
  MAP - mean arterial pressure: 129 mmHg
  SAP % Change from respective Time 0: 16%
  SAP - systolic arterial pressure: 183 mmHg
Anesthetized Dog; dog, IV bolus, 0.202 mg/kg d-amphetamine, equimolar to 0.5 mg/kg L-lysine-d-amphetamine
  Effect on mean blood pressure after the first (lowest) dose: acute doubling of the mean BP
